Assay results as given in PMC9975091 (Heliyon, 2023).
Read-outs that look alike come from different tables or passages of the source.

Assays:
WRL-68 = experiment: cells; type: cell-based; conditions: for IC50: Homo sapiens; for toxicity against normal cell line: WRL-68, result in words
MCF-7 = experiment: MTT cytotoxicity assay, MCF-7; type: cell-based; conditions: Homo sapiens
HCT-116 = experiment: MTT cytotoxicity assay, HCT-116; type: cell-based; conditions: Homo sapiens
HepG2 = experiment: MTT cytotoxicity assay, HepG2; type: cell-based, human
PC3 cells = conditions: read-out: IC50 proliferation rate of PC3 cells; cited from earlier work
[1] = WRL68, 48 h, read-out: IC50 against WRL-68 μM 48 h
[2] = WRL68, 72 h, read-out: IC50 against WRL-68 μM 72 h
[3] = MCF7, 48 h, read-out: IC50 against MCF-7 μM 48 h
[4] = MCF7, 72 h, read-out: IC50 against MCF-7 μM 72 h
[5] = HCT-116, 48 h, read-out: IC50 against HCT-116 μM 48 h
[6] = HCT-116, 72 h, read-out: IC50 against HCT-116 μM 72 h
[7] = Homo sapiens, HepG2, 48 h, read-out: IC50 against HepG2 μM 48 h, MTT, 48 h
[8] = Homo sapiens, HepG2, 72 h, read-out: IC50 against HepG2 μM 72 h, MTT, 72 h

## COc1ccc(-c2nc(OCc3cn(CC(=O)Nc4ccccc4)nn3)c3ccccc3n2)cc1 [Compound 8a, 2-(4-(((2-(4-methoxyphenyl)quinazolin-4-yl)oxy)methyl)-1H-1,2,3-triazol-1-yl)-N-phenylacetamide]
WRL-68; [1]
  IC50: 112 µM
WRL-68; [2]
  IC50: 94.1 µM
WRL-68
  toxicity against normal cell line: limited toxicity
MCF-7; [3]
  IC50: 38.1 µM
MCF-7; [4]
  IC50: 13 µM
HCT-116; [5]
  IC50: 10.7 µM
HCT-116; [6]
  IC50: 5.33 µM
HepG2; [7]
  IC50: 17.5 µM
HepG2; [8]
  IC50: 7.94 µM

## COc1ccc(-c2nc(OCc3cn(CC(=O)Nc4ccc(Cl)cc4)nn3)c3ccccc3n2)cc1 [Compound 8b, N-(4-chlorophenyl)-2-(4-(((2-(4-methoxyphenyl)quinazolin-4-yl)oxy)methyl)-1H-1,2,3-triazol-1-yl)acetamide]
WRL-68; [1]
  IC50: 108 µM
WRL-68; [2]
  IC50: 89.8 µM
MCF-7; [3]
  IC50: 25.9 µM
MCF-7; [4]
  IC50: 20.9 µM
HCT-116; [5]
  IC50: 77.1 µM
HCT-116; [6]
  IC50: 68.6 µM
HepG2; [7]
  IC50: 78.9 µM
HepG2; [8]
  IC50: 19.8 µM

## COc1ccc(-c2nc(OCc3cn(CC(=O)Nc4ccc(Br)cc4)nn3)c3ccccc3n2)cc1 [Compound 8c, N-(4-bromophenyl)-2-(4-(((2-(4-methoxyphenyl)quinazolin-4-yl)oxy)methyl)-1H-1,2,3-triazol-1-yl)acetamide]
WRL-68; [1]
  IC50: 106 µM
WRL-68; [2]
  IC50: 74.4 µM
MCF-7; [3]
  IC50: 111 µM
MCF-7; [4]
  IC50: 62.2 µM
HCT-116; [5]
  IC50: 47.8 µM
HCT-116; [6]
  IC50: 12.2 µM
HepG2; [7]
  IC50: 30.4 µM
HepG2; [8]
  IC50: 13 µM

## COc1ccc(-c2nc(OCc3cn(CC(=O)Nc4ccc(C)cc4)nn3)c3ccccc3n2)cc1 [Compound 8d, 2-(4-(((2-(4-methoxyphenyl)quinazolin-4-yl)oxy)methyl)-1H-1,2,3-triazol-1-yl)-N-(p-tolyl)acetamide]
WRL-68; [1]
  IC50: 113 µM
WRL-68; [2]
  IC50: 83.5 µM
MCF-7; [3]
  IC50: 39.9 µM
MCF-7; [4]
  IC50: 20 µM
HCT-116; [5]
  IC50: 30.1 µM
HCT-116; [6]
  IC50: 8.97 µM
HepG2; [7]
  IC50: 59.2 µM
HepG2; [8]
  IC50: 15 µM

## COc1ccc(-c2nc(OCc3cn(CC(=O)Nc4cccc(OC)c4)nn3)c3ccccc3n2)cc1 [Compound 8e, N-(3-methoxyphenyl)-2-(4-(((2-(4-methoxyphenyl)quinazolin-4-yl)oxy)methyl)-1H-1,2,3-triazol-1-yl)acetamide]
WRL-68; [1]
  IC50: 112 µM
MCF-7; [3]
  IC50: 35.2 µM
MCF-7; [4]
  IC50: 23 µM
HCT-116; [5]
  IC50: 160 µM
HCT-116; [6]
  IC50: 90.6 µM
HepG2; [7]
  IC50: 46 µM
HepG2; [8]
  IC50: 10.2 µM

## COc1ccc(-c2nc(OCc3cn(CC(=O)Nc4ccc([N+](=O)[O-])cc4C)nn3)c3ccccc3n2)cc1 [Compound 8f, 2-(4-(((2-(4-methoxyphenyl)quinazolin-4-yl)oxy)methyl)-1H-1,2,3-triazol-1-yl)-N-(2-methyl-4-nitrophenyl)acetamide]
WRL-68; [1]
  IC50: 100 µM
WRL-68; [2]
  IC50: 90.3 µM
WRL-68
  toxicity against normal cell line: limited toxicity
MCF-7; [3]
  IC50: 21.3 µM
MCF-7; [4]
  IC50: 18 µM
HCT-116; [5]
  IC50: 36.2 µM
HCT-116; [6]
  IC50: 23.9 µM
HepG2; [7]
  IC50: 26.1 µM
HepG2; [8]
  IC50: 9.15 µM

## O=C(Cn1cc(COc2nc(-c3ccc(Cl)cc3)nc3ccccc23)nn1)Nc1ccccc1 [Compound 8g, 2-(4-(((2-(4-chlorophenyl)quinazolin-4-yl)oxy)methyl)-1H-1,2,3-triazol-1-yl)-N-phenylacetamide]
WRL-68; [1]
  IC50: 103 µM
WRL-68; [2]
  IC50: 85.1 µM
MCF-7; [3]
  IC50: 67.2 µM
MCF-7; [4]
  IC50: 20.9 µM
HCT-116; [5]
  IC50: 49.2 µM
HCT-116; [6]
  IC50: 24.5 µM
HepG2; [7]
  IC50: 38.8 µM
HepG2; [8]
  IC50: 13.2 µM

## O=C(Cn1cc(COc2nc(-c3ccc(Cl)cc3)nc3ccccc23)nn1)Nc1ccc(Br)cc1 [Compound 8h, N-(4-bromophenyl)-2-(4-(((2-(4-chlorophenyl)quinazolin-4-yl)oxy)methyl)-1H-1,2,3-triazol-1-yl)acetamide]
WRL-68; [1]
  IC50: 115 µM
WRL-68; [2]
  IC50: 89.5 µM
MCF-7; [3]
  IC50: 34.1 µM
MCF-7; [4]
  IC50: 20.6 µM
HCT-116; [5]
  IC50: 42.3 µM
HCT-116; [6]
  IC50: 41.8 µM
HepG2; [7]
  IC50: 90.5 µM
HepG2; [8]
  IC50: 8.55 µM

## Cc1ccc(NC(=O)Cn2cc(COc3nc(-c4ccc(Cl)cc4)nc4ccccc34)nn2)cc1 [Compound 8i, 2-(4-(((2-(4-chlorophenyl)quinazolin-4-yl)oxy)methyl)-1H-1,2,3-triazol-1-yl)-N-(p-tolyl)acetamide]
WRL-68; [1]
  IC50: 117 µM
WRL-68; [2]
  IC50: 86.4 µM
MCF-7; [3]
  IC50: 221 µM
MCF-7; [4]
  IC50: 97 µM
HCT-116; [5]
  IC50: 48.1 µM
HCT-116; [6]
  IC50: 24.2 µM
HepG2; [7]
  IC50: 55.1 µM
HepG2; [8]
  IC50: 10.9 µM

## O=C(Cn1cc(COc2nc(-c3ccc(Cl)cc3)nc3ccccc23)nn1)Nc1cccc(Br)c1 [Compound 8j, N-(3-bromophenyl)-2-(4-(((2-(4-chlorophenyl)quinazolin-4-yl)oxy)methyl)-1H-1,2,3-triazol-1-yl)acetamide]
WRL-68; [1]
  IC50: 110 µM
WRL-68; [2]
  IC50: 78.6 µM
MCF-7; [3]
  IC50: 164 µM
MCF-7; [4]
  IC50: 55.8 µM
HCT-116; [5]
  IC50: 176 µM
HCT-116; [6]
  IC50: 54.2 µM
HepG2; [7]
  IC50: 55.8 µM
HepG2; [8]
  IC50: 8.55 µM
HepG2; read-out: IC50 against HepG2 μM 72 h, MTT, 72 h
  IC50: 12.7 µM

## COc1cc(-c2nc(OCc3cn(CC(=O)Nc4ccccc4)nn3)c3ccccc3n2)cc(OC)c1OC [Compound 8k, N-phenyl-2-(4-(((2-(3,4,5-trimethoxyphenyl)quinazolin-4-yl)oxy)methyl)-1H-1,2,3-triazol-1-yl)acetamide]
WRL-68; [1]
  IC50: 117 µM
WRL-68; [2]
  IC50: 84.4 µM
MCF-7; [3]
  IC50: 24.2 µM
MCF-7; [4]
  IC50: 11.3 µM
HCT-116; [5]
  IC50: 69 µM
HCT-116; [6]
  IC50: 41.1 µM
HepG2; [7]
  IC50: 72.4 µM
HepG2; [8]
  IC50: 16.2 µM

## COc1cc(-c2nc(OCc3cn(CC(=O)Nc4ccc(C)cc4)nn3)c3ccccc3n2)cc(OC)c1OC [Compound 8l, N-(p-tolyl)-2-(4-(((2-(3,4,5-trimethoxyphenyl)quinazolin-4-yl)oxy)methyl)-1H-1,2,3-triazol-1-yl)acetamide]
WRL-68; [1]
  IC50: 101 µM
WRL-68; [2]
  IC50: 71.3 µM
MCF-7; [3]
  IC50: 28.8 µM
MCF-7; [4]
  IC50: 26.5 µM
HCT-116; [5]
  IC50: 64.3 µM
HCT-116; [6]
  IC50: 29.4 µM
HepG2; [7]
  IC50: 41.4 µM

## COc1cccc2c1C(=O)c1c(O)c3c(c(O)c1C2=O)C[C@@](O)(C(=O)CO)C[C@@H]3O[C@H]1C[C@H](N)[C@H](O)[C@H](C)O1 [Doxorubicin, reference compound]
WRL-68; [1]
  IC50: 2.19 µM
WRL-68; [2]
  IC50: 1.73 µM
HCT-116; [6]
  IC50: 1.21 µM
HepG2; [7]
  IC50: 1.96 µM
HepG2; [8]
  IC50: 1.31 µM

## CNC(=O)c1cc(Oc2ccc(NC(=O)Nc3ccc(Cl)c(C(F)(F)F)c3)cc2)ccn1 [sorafenib]
PC3 cells
  IC50: 17.3 µM
